Results on ten compounds are retold here after ChEMBL document CHEMBL1201862, “PubChem BioAssay data set” (2004).

Some test systems named below: SK-OV-3; U-251; MDA-MB-435; SN12C; SK-MEL-28; OVCAR-3; MCF7; SK-MEL-5; SF-295; KM12; SW-620; DU-145; UACC-62; A498; SF-268; PC-3; BT-549; MDA-N; TK-10; 786-0.
What all share (assay): growth of human tumour cells (NCI), 48 h

SMILES strings stand for the structures.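 Step 1: Grow cells in 96-well plates. Step 2: Expose to compound for 48 hours at 5 concentrations. Step 3: Interpolate endpoints linearly; if unreached, use highest concentration. The concentration for 50% growth inhibition is given as GI50.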 The source made the active and inactive calls. No stated cut-off is given here; in the data, active = GI50 up to about 1.1 µM and inactive = higher.

For the compound `CCCc1[nH]nc(C(N)=O)c1/N=N/N(C)C`, the GI50 was 59.7 µM (inactive) with SK-OV-3; 55.8 µM (inactive) in the assay with U-251; > 100 µM (inactive) with MDA-MB-435; 48.3 µM (inactive) in the assay with SN12C; > 100 µM (inactive) with SK-MEL-28; > 100 µM (inactive) in the assay on OVCAR-3. For the same compound, the GI50 in the assay with MCF7 was 20.1 µM (inactive); with SK-MEL-5 it was 50.1 µM (inactive); in the assay with SF-295 it was 57.9 µM (inactive); in the assay with KM12, 37.1 µM (inactive); in the assay with SW-620 it was 63.7 µM (inactive); with DU-145, 49.5 µM (inactive). The GI50 with UACC-62 is 36.9 µM (inactive); in the assay on A498, 71.6 µM (inactive); in the assay on SF-268, 36.9 µM (inactive); with PC-3, > 100 µM (inactive); with BT-549, 24.3 µM (inactive); in the assay with MDA-N, > 100 µM (inactive). The results for the GI50 with TK-10 and in the assay with 786-0 were 67.5 µM (inactive) and 65.5 µM (inactive), respectively.

Take `O=S(=O)(O)c1cc(O)c2c(/N=C\c3ccccc3O)cc(S(=O)(=O)O)cc2c1`: the GI50 with SK-OV-3, with U-251, in the assay with MDA-MB-435, with SN12C, in the assay with SK-MEL-28 and in the assay with OVCAR-3 was > 100 µM (inactive) throughout. The GI50 with MCF7, in the assay on SK-MEL-5, in the assay on SF-295, in the assay with KM12, in the assay on SW-620 and in the assay on DU-145 was > 100 µM (inactive) in each case. Moreover, the GI50 with UACC-62, in the assay on A498, in the assay with SF-268, with PC-3, with BT-549 and with MDA-N was > 100 µM (inactive) in each case. Besides, the GI50 in the assay with TK-10 and with 786-0 was > 100 µM (inactive) in each case.

With `COc1ccc2c(-c3cc4ccccc4o3)cc(=O)oc2c1`, the GI50 in the assay on SK-OV-3 was 23.1 µM (inactive); in the assay on U-251, 24.3 µM (inactive); in the assay on MDA-MB-435, > 100 µM (inactive); in the assay on SN12C it was 68.9 µM (inactive); in the assay on SK-MEL-28, 53.7 µM (inactive); in the assay with OVCAR-3, 16.6 µM (inactive). Also, the GI50 with MCF7 is > 67.3 µM (inactive); in the assay on SK-MEL-5, 40.1 µM (inactive); with SF-295, 22.9 µM (inactive); in the assay with KM12, 98.2 µM (inactive); in the assay with SW-620 it was > 100 µM (inactive); in the assay with DU-145, > 74.8 µM (inactive). In addition, the GI50 with UACC-62 is 67.5 µM (inactive); in the assay with A498, 31.3 µM (inactive); with SF-268, 25.3 µM (inactive); in the assay on PC-3, 73.5 µM (inactive); with BT-549, 34.1 µM (inactive); in the assay with MDA-N it was > 76.6 µM (inactive). Further, the GI50 was 21.7 µM (inactive) with TK-10 and 25.8 µM (inactive) in the assay with 786-0.

Consider `Cn1c(=O)sc2cc(C(=S)N3CCN(c4ccccc4)CC3)ccc21`, for which the GI50 in the assay with SK-OV-3 was 32.3 µM (inactive); with U-251, 16 µM (inactive); in the assay with MDA-MB-435 it was > 100 µM (inactive); in the assay on SN12C it was 50.6 µM (inactive); in the assay with SK-MEL-28, 97.1 µM (inactive); with OVCAR-3 it was 54.8 µM (inactive). In addition, the GI50 is 64.3 µM (inactive) with MCF7; > 100 µM (inactive) in the assay on SK-MEL-5; 19.9 µM (inactive) in the assay with SF-295; > 100 µM (inactive) in the assay with KM12; > 100 µM (inactive) in the assay with SW-620; > 100 µM (inactive) with DU-145. Moreover, the GI50 in the assay on UACC-62 was 31.8 µM (inactive); in the assay on A498, > 100 µM (inactive); in the assay on SF-268, 29.9 µM (inactive); with PC-3, 31.3 µM (inactive); with BT-549 it was 60.7 µM (inactive); with MDA-N, > 100 µM (inactive). Also, the GI50 is 71.9 µM (inactive) in the assay on TK-10 and 44 µM (inactive) in the assay on 786-0.

With `C[n+]1c2ccccc2n2c3ccccc3c(NCCCn3ccnc3)c(C#N)c21`, the GI50 with SK-OV-3 is 3.54 µM (inactive); in the assay with U-251, 2.18 µM (inactive); in the assay with MDA-MB-435, 2.23 µM (inactive); with SN12C, 1.26 µM (inactive); with SK-MEL-28, 3.48 µM (inactive); in the assay with OVCAR-3, 2.36 µM (inactive). The GI50 in the assay on MCF7 is 0.547 µM (active); with SK-MEL-5 it was 3.09 µM (inactive); with SF-295 it was 3.74 µM (inactive); in the assay with KM12 it was 2.01 µM (inactive); with SW-620 it was 1.49 µM (inactive); in the assay on DU-145, 2.77 µM (inactive). The GI50 is 2.74 µM (inactive) in the assay with UACC-62; 13.4 µM (inactive) in the assay with A498; 1.44 µM (inactive) in the assay on SF-268; 2.02 µM (inactive) in the assay with PC-3; 17.6 µM (inactive) with BT-549; 2.7 µM (inactive) in the assay with MDA-N. The GI50 was 7.11 µM (inactive) in the assay on TK-10 and 2.04 µM (inactive) in the assay with 786-0.

In the case of `CC1=NN(c2nc(N)nc(/C(C#N)=C\c3ccc([N+](=O)[O-])s3)n2)C(C)(C)C1`, the GI50 with SK-OV-3 was 8.99 µM (inactive); with U-251, 0.104 µM (active); in the assay with MDA-MB-435, 0.233 µM (active); in the assay on SN12C, 0.363 µM (active); with SK-MEL-28 it was 0.383 µM (active); in the assay on OVCAR-3, 0.124 µM (active). Besides, the GI50 was 0.142 µM (active) in the assay with MCF7; 0.625 µM (active) with SK-MEL-5; 2.96 µM (inactive) in the assay with SF-295; 0.316 µM (active) in the assay on KM12; 0.0736 µM (active) with SW-620; 0.24 µM (active) in the assay on DU-145. Also, the GI50 is 0.861 µM (active) in the assay with UACC-62; 7.78 µM (inactive) in the assay on A498; 0.408 µM (active) in the assay on SF-268; 0.165 µM (active) with PC-3; 0.701 µM (active) with BT-549; 0.34 µM (active) in the assay on MDA-N. In addition, the values for the GI50 in the assay with TK-10 and in the assay with 786-0 were 0.507 µM (active) and 0.16 µM (active), respectively.

Turning to `O=C(NC(=S)Nc1ccc([N+](=O)[O-])cc1)c1ccc2c(c1)Sc1ccccc1O2`, the GI50 in the assay with SK-OV-3 is 77.1 µM (inactive); in the assay with U-251 it was 37 µM (inactive); with MDA-MB-435, > 100 µM (inactive); in the assay on SN12C it was > 100 µM (inactive); in the assay on SK-MEL-28, > 100 µM (inactive); with OVCAR-3, > 100 µM (inactive). In addition, the GI50 in the assay with MCF7 was > 100 µM (inactive); in the assay on SK-MEL-5, > 100 µM (inactive); in the assay with SF-295, 89.1 µM (inactive); with KM12, > 100 µM (inactive); in the assay with SW-620, > 100 µM (inactive); in the assay on DU-145, > 100 µM (inactive). Moreover, the GI50 in the assay on UACC-62 is 71.3 µM (inactive); in the assay with A498, > 100 µM (inactive); in the assay on SF-268, 30.2 µM (inactive); in the assay with PC-3, > 100 µM (inactive); in the assay with BT-549, > 100 µM (inactive); in the assay with MDA-N it was > 100 µM (inactive). The values for the GI50 with TK-10 and in the assay on 786-0 were 44.2 µM (inactive) and 44.8 µM (inactive), respectively.

As to `CC(Cl)(CCC(Cl)C(C)(C)Cl)C(=O)CBr` (stereo not given), the GI50 in the assay on SK-OV-3 was 13.4 µM (inactive); in the assay on U-251, 15.6 µM (inactive); in the assay with MDA-MB-435, 14.2 µM (inactive); with SN12C it was 14.7 µM (inactive); with SK-MEL-28, 16.7 µM (inactive); in the assay on OVCAR-3 it was 15.4 µM (inactive). For the same compound, the GI50 with MCF7 is 13 µM (inactive); with SK-MEL-5, 8.49 µM (inactive); in the assay with SF-295, 21.4 µM (inactive); in the assay with KM12, 15.6 µM (inactive); with SW-620, 2.18 µM (inactive); in the assay on DU-145, 19.5 µM (inactive). The GI50 with UACC-62 is 10.1 µM (inactive); in the assay with A498, 17.2 µM (inactive); in the assay on SF-268, 16.7 µM (inactive); with PC-3, 14.6 µM (inactive); in the assay with BT-549, 14.2 µM (inactive); in the assay with MDA-N it was 8.2 µM (inactive). The GI50 in the assay on TK-10 was 11.8 µM (inactive); in the assay on 786-0 it was 7.94 µM (inactive).

As to `CC(=O)O[C@H]1C[C@]2(C)C(CCC3O[C@@]32C)[C@@]2(CC(c3ccoc3)OC2O)[C@@H]1C` (stereo not given in full), the GI50 with SK-OV-3 is > 100 µM (inactive); with U-251, > 100 µM (inactive); with MDA-MB-435, 86.7 µM (inactive); in the assay on SN12C, > 100 µM (inactive); in the assay on SK-MEL-28, > 100 µM (inactive); with OVCAR-3, 60.7 µM (inactive). Also, the GI50 in the assay with MCF7 was 44.3 µM (inactive); with SK-MEL-5, 50 µM (inactive); in the assay on SF-295, > 100 µM (inactive); in the assay with KM12 it was 78.3 µM (inactive); in the assay with SW-620 it was > 100 µM (inactive); with DU-145 it was > 100 µM (inactive). For the same compound, the GI50 with UACC-62 is 37.6 µM (inactive); with A498, > 100 µM (inactive); with SF-268, > 100 µM (inactive); in the assay with PC-3 it was 50.1 µM (inactive); with BT-549, 40 µM (inactive); with MDA-N, > 100 µM (inactive). The GI50 in the assay on TK-10 and in the assay with 786-0 was > 100 µM (inactive) throughout.

`O=C1OC(=O)C(=C\c2ccc3c(c2)OCO3)/C1=C/c1ccc2c(c1)OCO2`: the GI50 in the assay on SK-OV-3 is > 100 µM (inactive); in the assay on U-251, > 80.7 µM (inactive); with MDA-MB-435, > 100 µM (inactive); in the assay with SN12C, > 100 µM (inactive); in the assay on SK-MEL-28, > 100 µM (inactive); in the assay on OVCAR-3 it was > 100 µM (inactive). Moreover, the GI50 in the assay on MCF7, with SK-MEL-5, with SF-295, in the assay with KM12, in the assay on SW-620 and in the assay with DU-145 was > 100 µM (inactive) each time. The GI50 was > 72.1 µM (inactive) in the assay on UACC-62; > 100 µM (inactive) with A498; > 100 µM (inactive) in the assay with SF-268; > 100 µM (inactive) in the assay with PC-3; > 100 µM (inactive) in the assay with BT-549; > 100 µM (inactive) in the assay on MDA-N. Besides, the GI50 in the assay on TK-10 and with 786-0 was > 100 µM (inactive) each time.
